Experimental data as given in EP3892275A1, “AEROSOLIZATION OF HCQ OR ITS METABOLITES FOR THE TREATMENT OF LUNG INFECTIONS” (INSERM (Institut National de la Santé et de la Recherche …, priority 2020, dated 2021).

Legend:
[1] = Behaviour in water (solubility, aggregation)
[2] = tested on: COVID; details: references 1,2; cited from earlier work
[3] = tested on: lung; details: aerosol delivery in animals; cited from earlier work

SMILES	aggregation when dissolved in water [1]	solubility in water [1]	antiviral activity in vitro at a cellular level [2]	anti-inflammatory effect on the lung [3]
CC(CCCNCCO)Nc1ccnc2cc(Cl)ccc12 (stereo not drawn) [DHCQ, N-desethylhydroxychloroquine]	do not aggregate	water-soluble		
CCN(CCO)CCCC(C)Nc1ccnc2cc(Cl)ccc12.O=S(=O)(O)O (stereo not drawn) [HCQ, 2-[[4-[(7-Chloro-4-quinolyl)amino]pentyl]ethylamino] ethanol sulfate (1:1)]	do not aggregate	water-soluble	highly potent antiviral drug	rapid and potent anti-inflammatory effect on the lung
